Data: patent publication US12398179B2, “Nanomolar peptides and derivatives to differentially modulate ephrin receptors” (Sanford Burnham Prebys Medical Discovery Institute, priority 2019, dated 2025)
Converted amounts (≈) assume the structure as drawn. Where two headings read alike, the source gives them in different places.

Key:
[1] = physchem
[2] = Peptide solubility in PBS/H2O
[3] = biological target: T1, EphA2 WT (Homo sapiens, UniProt P29317); experiment: Quantitative FRET of EphA2 oligomerization in HEK293 cells; assay type: cell-based; settings: transiently transfected HEK293 cells; 50 μM for YSA-GSGSK-bio
T1 construct: expressed in transfected cells; host or cells: HEK293 (transient transfection)
T1 sequence (P29317 24-976): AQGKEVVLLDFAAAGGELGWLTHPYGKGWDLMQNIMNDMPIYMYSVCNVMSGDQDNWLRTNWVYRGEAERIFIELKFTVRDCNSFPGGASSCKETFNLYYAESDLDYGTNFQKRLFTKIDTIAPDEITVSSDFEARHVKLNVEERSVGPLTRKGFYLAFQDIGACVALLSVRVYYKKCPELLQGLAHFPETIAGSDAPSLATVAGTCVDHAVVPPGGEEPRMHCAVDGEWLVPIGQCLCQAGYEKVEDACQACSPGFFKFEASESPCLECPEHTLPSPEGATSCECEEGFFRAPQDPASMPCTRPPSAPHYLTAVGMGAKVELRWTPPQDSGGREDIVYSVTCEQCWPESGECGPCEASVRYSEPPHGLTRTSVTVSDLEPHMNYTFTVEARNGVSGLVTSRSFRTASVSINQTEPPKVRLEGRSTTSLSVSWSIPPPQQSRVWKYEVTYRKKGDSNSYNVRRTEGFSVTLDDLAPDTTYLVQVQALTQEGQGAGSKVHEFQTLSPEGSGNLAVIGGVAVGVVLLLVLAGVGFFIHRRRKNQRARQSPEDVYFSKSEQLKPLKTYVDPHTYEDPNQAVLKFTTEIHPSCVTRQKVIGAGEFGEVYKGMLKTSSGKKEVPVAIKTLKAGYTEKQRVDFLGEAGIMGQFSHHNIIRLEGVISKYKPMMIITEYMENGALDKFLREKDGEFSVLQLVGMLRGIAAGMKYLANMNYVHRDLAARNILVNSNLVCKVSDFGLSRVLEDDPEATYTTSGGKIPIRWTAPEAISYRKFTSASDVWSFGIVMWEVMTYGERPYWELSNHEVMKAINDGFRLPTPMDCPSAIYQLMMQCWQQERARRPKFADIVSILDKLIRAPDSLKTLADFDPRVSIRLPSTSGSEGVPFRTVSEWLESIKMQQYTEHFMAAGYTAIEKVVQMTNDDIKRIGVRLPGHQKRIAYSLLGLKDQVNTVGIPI

[4] = biological target: T2, EphA2 G131Y (Homo sapiens, UniProt P29317, G131Y); experiment: as above; assay type: cell-based; settings: 50 μM peptide
T2 construct: expressed in transfected cells; host or cells: HEK293 (transient transfection)
T2 sequence (P29317 24-976 G131Y): as the sequence (P29317 24-976) above, with G108Y counted along it
From the text: (§1) (FIG. 5F) Two-dimensional dissociation constant values (Kdiss) and dimerization free energy values (ΔG=−RT×In (10^6/Kdiss) calculated from the curves shown in the other panels. Shown are the best fit values and the […] confidence intervals (standard errors). Kdiss values for all curves were compared to each other using one-way ANOVA followed by Tukey's multiple comparison test; *, P<0.05; **, P<0.01; ***, P<0.001; * P<0.0001; ns, not significant.
(§2) Thus, the peptide enhanced the weak EphA2 dimerization observed in the absence of a bound ligand, which also occurred through the clustering interface. In contrast, the monomeric soluble form of ephrin-Al induced the formation of EphA2 dimers that assembled through another extracellular interface known as the “heterodimerization” or “dimerization” interface.

[5] = biological target: T3, EphA2 L223R/L254R/V255R (Homo sapiens, UniProt P29317, L223R/L254R/V255R); experiment: as above; assay type: cell-based; settings: 50 μM peptide
T3 construct: expressed in transfected cells; host or cells: HEK293 (transient transfection)
T3 sequence (P29317 24-976 L223R/L254R/V255R): as the sequence (P29317 24-976) above, with L200R, L231R, V232R counted along it
From the text: as §1, §2

[6] = biological target: T4, EphA2 (Homo sapiens, UniProt P29317); experiment: ELISA: inhibition of ephrin-A5 AP binding to immobilized EphA2 Fc; design: the immobilized EphA2 extracellular domain fused to the Fc portion of an antibody (EphA2 Fc); settings: average ± SE
Method: (FIG. 2A) Representative ELISAs comparing the ability of the peptides to inhibit binding of ephrin-A5 fused to alkaline phosphatase (ephrin-A5 AP) to the immobilized EphA2 extracellular domain fused to the Fc portion of an antibody (EphA2 Fc). The graphs show averages±SE from triplicate measurements from a representative experiment. IC50 values calculated from the fitted curves in each experiment are shown. All concentrations are nM and the 100 nM peptide concentration is outlined in red. (FIG. 2B) Ephrin-A5 AP binding to the indicated EphA receptors and ephrin-B2 AP binding to the indicated EphB receptors in the presence of the indicated peptide, normalized to ephrin binding without peptide. The bars show averages±SE from triplicate measurements.
Target sequence in this assay (P29317 24-537 limits assumed, species assumed): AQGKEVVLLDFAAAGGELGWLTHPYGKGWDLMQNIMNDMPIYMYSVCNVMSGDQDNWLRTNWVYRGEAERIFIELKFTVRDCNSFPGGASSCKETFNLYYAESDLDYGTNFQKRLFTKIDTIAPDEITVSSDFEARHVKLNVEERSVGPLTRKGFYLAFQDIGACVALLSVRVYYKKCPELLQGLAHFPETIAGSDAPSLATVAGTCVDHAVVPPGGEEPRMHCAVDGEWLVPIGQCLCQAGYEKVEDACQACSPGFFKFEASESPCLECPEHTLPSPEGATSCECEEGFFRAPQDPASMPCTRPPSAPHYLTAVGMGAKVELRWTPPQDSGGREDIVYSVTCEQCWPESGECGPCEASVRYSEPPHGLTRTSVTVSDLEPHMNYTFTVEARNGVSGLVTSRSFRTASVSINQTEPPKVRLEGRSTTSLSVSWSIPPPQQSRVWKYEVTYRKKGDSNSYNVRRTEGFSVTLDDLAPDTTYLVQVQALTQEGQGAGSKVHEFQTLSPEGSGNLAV

[7] = biological target: T4, EphA2; experiment: EphA2 Y588 autophosphorylation in PC3 cells (immunoblot); assay type: cell-based; design: endogenous EphA2 expressed in PC3 prostate cancer cells; endogenous in cells; host or cells: PC3 prostate cancer cells; settings: for EphA2 activation / Y588 phosphorylation (in words): 15 min
Method: (§3) PC3 cells were treated for 15 min with different concentrations of the indicated peptides. […] The graphs show quantification of pY588 and pAKT from multiple blots (averages±SE), normalized to total EphA2 levels. The number of experiments analyzed is: 5 in FIG. 4A, 3 in FIG. 4B, 7 in FIG. 4C, 7 in FIG. 4D, 5 in FIG. 4E, 3 in FIG. 4F, 3 in FIG. 4G and 2 in FIG. 4H.
PC3 cells were treated for 15 min with different concentrations of the indicated peptides. […] The graphs show quantification of pY588 or pAKT from multiple blots (averages±SE), normalized to total EphA2 levels. The number of experiments analyzed is: 3 in FIG. 10A, 6 in FIG. 10B, 2 in FIG. 10C, 5 in FIG. 10D, 4 in FIG. 10E and 3 in FIG. 10F.
Target sequence in this assay (P29317 24-976): as the sequence (P29317 24-976) above

[8] = biological target: T5, EphA2 LBD (Homo sapiens, UniProt P29317); experiment: Isothermal titration calorimetry (ITC) of peptide binding
T5 construct: EphA2 LBD (residues 28-200); made in house; host or cells: E. coli Origami 2 (DE3)
T5 sequence (P29317 28-200): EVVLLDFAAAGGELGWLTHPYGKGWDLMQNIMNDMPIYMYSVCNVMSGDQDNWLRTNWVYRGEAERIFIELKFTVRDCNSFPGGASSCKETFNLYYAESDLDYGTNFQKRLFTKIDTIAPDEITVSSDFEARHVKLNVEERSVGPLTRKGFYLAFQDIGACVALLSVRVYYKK
Method: For ITC, all peptides were dissolved in DMSO and both the EphA2 LBD and the peptides were diluted to obtain a final buffer containing 9.5 mM HEPES, pH 7.9, 95 mM NaCl, and 5% DMSO. […] Two-microliter aliquots of a peptide solution were injected into the cell containing 205 μL EphA2 LBD. 200-400 μM peptides were titrated into 20-40 μM EphA2 LBD. Experimental data were analyzed using the Origin software package (Microcal). The integrated values for the reaction heats were normalized to the amount of injected peptide after blank subtraction.

[9] = tested on: AKT; experiment: AKT S473 phosphorylation in PC3 cells (immunoblot); assay type: cell-based; settings: peptide then 0.1 μg/ml ephrin-A1 Fc
Method: as §3

[10] = biological target: T4, EphA2; experiment: Inhibition of ephrin-A1 Fc-induced EphA2 Y588 phosphorylation in PC3 cells; assay type: cell-based; design: endogenous EphA2 expressed in PC3 prostate cancer cells; endogenous in cells; host or cells: PC3 prostate cancer cells; settings: 20 min peptide then 0.1 μg/ml ephrin-A1 Fc
Method: PC3 cells were treated for 20 min with different concentrations of the indicated peptides and then activated with 0.1 μg/ml ephrin-Al Fc. The immunoblots show EphA2 autophosphorylation on tyrosine 588 (pY588, indicative of receptor activation), total EphA2 levels, and AKT phosphorylation on S473 (indicative of AKT activation). pY588 values were normalized to the value obtained in the same blot with ephrin-Al Fc treatment in the absence of peptide. pAKT values were normalized to the value obtained in the same blot without ephrin-A1 Fc or peptide treatment. Calculated EC50 and IC50 values are shown. The graphs show quantification of pY588 and pAKT from 7 blots for each peptide (averages±SE), normalized to total EphA2 levels.
Target sequence in this assay (P29317 24-976): as the sequence (P29317 24-976) above

[11] = PBS, Solubility in PBS (mg/ml), PBS (first figure of cell)
[12] = water, Solubility in H2O (mg/ml), H2O (second figure of cell)
[13] = EphA2 LBD, 23° C., average ± SE (Table 1), read-out: KD (nM) by ITC

Structure (SMILES) | solubility [2, 11] | solubility [2, 12] | IC50 [6] | Kd [8, 13] | EphA2 activation / Y588 phosphorylation (in words) [7] | further results
CC(C)C[C@H](NC(=O)[C@H](Cc1c[nH]c2ccccc12)NC(=O)[C@@H](N)CO)C(=O)N[C@@H](C)C(=O)N[C@@H](Cc1ccc(O)cc1)C(=O)N1CCC[C@H]1C(=O)NCC(=O)N[C@@H](C)C(=O)N[C@H](C(=O)N[C@@H](CO)C(=O)N[C@@H](Cc1ccc(O)cc1)C(=O)N[C@@H](CCCN=C(N)N)C(=O)O)C(C)C [SWL] | – | – | – | – | – | solubility ([1]; Solubility in H2O (mg/ml)): 10000 µg/mL (≈ 7.3 mM); solubility ([1]; Solubility in PBS (mg/ml)): 5000 µg/mL (≈ 3.65 mM)
CSCC[C@H](NC(=O)[C@H](CCSC)NC(=O)[C@@H]1CCCN1C(=O)[C@@H](NC(=O)[C@H](CO)NC(=O)[C@H](CC(=O)O)NC(=O)[C@@H]1CCCN1C(=O)[C@H](Cc1ccc(O)cc1)NC(=O)[C@H](C)NC(=O)[C@H](CO)NC(=O)[C@@H](N)Cc1ccc(O)cc1)C(C)C)C(=O)N[C@@H](CO)C(=O)NCC(=O)N[C@@H](CO)C(=O)NCC(=O)N[C@@H](CO)C(=O)N[C@@H](CCCCNC(=O)CCCC[C@@H]1SC[C@@H]2NC(=O)N[C@@H]21)C(=O)O [YSA-GSGSK-bio] | 15000 µg/mL (≈ 7.54 mM) | 15000 µg/mL (≈ 7.54 mM) | – | – | – | EphA2 WT oligomerization by FRET [3]: substantially increased the oligomeric fraction; EphA2 G131Y oligomerization by FRET [4]: had no effect on/reduced oligomerization; EphA2 L223R/L254R/V255R oligomerization by FRET [5]: promoted substantial oligomerization
CC(=O)NCCCC[C@H](NC(=O)[C@@H]1CCCN1C(=O)[C@H](CCCNC(=N)N)NC(=O)[C@H](Cc1ccc(O)cc1)NC(=O)[C@@H]1CCCN1C(=O)[C@@H](NC(=O)[C@H](CO)NC(=O)[C@H](CC(=O)O)NC(=O)[C@@H]1CCCN1C(=O)[C@H](Cc1ccc(O)cc1)NC(=O)[C@H](C)NC(=O)[C@H](CC(C)C)NC(=O)[C@H](Cc1c[nH]c2ccccc12)NC(=O)CCN)C(C)C)C(=O)O [βA-WLA-YRP-ack] | 5000 µg/mL (≈ 2.93 mM) | 5000 µg/mL (≈ 2.93 mM) | 82 ± 10 nM | – | only slightly increased agonistic ability | –
CC(C)C[C@H](NC(=O)[C@H](Cc1c[nH]c2ccccc12)NC(=O)CCN)C(=O)N[C@@H](C)C(=O)N[C@@H](Cc1ccc(O)cc1)C(=O)N1CCC[C@H]1C(=O)N[C@@H](CC(=O)O)C(=O)N[C@@H](CO)C(=O)N[C@H](C(=O)N1CCC[C@H]1C(=O)N[C@@H](Cc1ccc(O)cc1)C(=O)N[C@@H](CCCNC(=N)N)C(=O)N1CCC[C@H]1C(=O)N[C@@H](CCCCN)C(=O)O)C(C)C [βA-WLA-YRPK] | 10000 µg/mL (≈ 6.01 mM) | 10000 µg/mL (≈ 6.01 mM) | 55 ± 5 nM | 190 nM | substantial ability to activate EphA2 | Kd ([8]; read-out: binding affinity for the EphA2 LBD measured by ITC): ~200 nM; maximal Y588 phosphorylation lower than biotinylated peptide ([7]; saturating peptide concentrations): about 40%

The next lines start with results.

solubility [2, 11] | solubility [2, 12] | IC50 [6] | Kd [8, 13] | Structure (SMILES) | EphA2 activation / Y588 phosphorylation (in words) [7] | further results
2000 µg/mL (≈ 1.06 mM) | 5000 µg/mL (≈ 2.65 mM) | 18 ± 1 nM | – | CC(C)C[C@H](NC(=O)[C@H](Cc1c[nH]c2ccccc12)NC(=O)CCN)C(=O)N[C@@H](C)C(=O)N[C@@H](Cc1ccc(O)cc1)C(=O)N1CCC[C@H]1C(=O)N[C@@H](CC(=O)O)C(=O)N[C@@H](CO)C(=O)N[C@H](C(=O)N1CCC[C@H]1C(=O)N[C@@H](Cc1ccc(O)cc1)C(=O)N[C@@H](CCCNC(=N)N)C(=O)N1CCC[C@H]1C(=O)N[C@@H](CCCCNC(=O)CCCC[C@@H]1SC[C@@H]2NC(=O)N[C@@H]21)C(N)=O)C(C)C [βA-WLA-YRPKam-bio] | induce high levels of EphA2 phosphorylation | –
10000 µg/mL (≈ 6.02 mM) | 10000 µg/mL (≈ 6.02 mM) | 19 ± 2 nM | 110 nM | CC(C)C[C@H](NC(=O)[C@H](Cc1c[nH]c2ccccc12)NC(=O)CCN)C(=O)N[C@@H](C)C(=O)N[C@@H](Cc1ccc(O)cc1)C(=O)N1CCC[C@H]1C(=O)N[C@@H](CC(=O)O)C(=O)N[C@@H](CO)C(=O)N[C@H](C(=O)N1CCC[C@H]1C(=O)N[C@@H](Cc1ccc(O)cc1)C(=O)N[C@@H](CCCNC(=N)N)C(=O)N1CCC[C@H]1C(=O)N[C@@H](CCCCN)C(N)=O)C(C)C [βA-WLA-YRPKam] | – | effect on AKT inhibition caused by EphA2 activation [9]: prevented the inhibitory effects; effect on EphA2 Y588 phosphorylation induced by ephrin-A1 Fc [10]: inhibited
